Where two headings read alike, the source gives them in different places.
Conditions: 2 Hrs

## [85Sr] [^85 Sr]
0.1 mg/kg AEDP
  % Dose in Whole Organ: Blood: 2.48 % Dose
  % Dose in Whole Organ: Kidneys: 0.324 % Dose
  % Dose in Whole Organ: Liver: 0.654 % Dose
  % Dose in Whole Organ: Marrow: 0.244 % Dose
  % Dose in Whole Organ: Muscle: 5.15 % Dose
  % Dose in Whole Organ: W. Femur: 3.27 % Dose
  % Dose in Whole Organ: W. Tibia: 2.99 % Dose
  % Dose/1% Body weight: Blood: 0.354 % Dose/1% Body weight
  % Dose/1% Body weight: Bone Ave: 10.48 % Dose/1% Body weight
  % Dose/1% Body weight: Femur: 10.97 % Dose/1% Body weight
  % Dose/1% Body weight: Kidneys: 0.441 % Dose/1% Body weight
  % Dose/1% Body weight: Liver: 0.182 % Dose/1% Body weight
  % Dose/1% Body weight: Marrow: 0.166 % Dose/1% Body weight
  % Dose/1% Body weight: Muscle: 0.136 % Dose/1% Body weight
  % Dose/1% Body weight: Pelvis: 8.66 % Dose/1% Body weight
  % Dose/1% Body weight: Spine: 10.56 % Dose/1% Body weight
  % Dose/1% Body weight: Tibia: 11.71 % Dose/1% Body weight
  % Dose: Urine: 12.1 % Dose
0.1 mg/kg EHDP
  % Dose in Whole Organ: Blood: 3.10 % Dose
  % Dose in Whole Organ: Kidneys: 0.30 % Dose
  % Dose in Whole Organ: Liver: 0.64 % Dose
  % Dose in Whole Organ: Marrow: 0.43 % Dose
  % Dose in Whole Organ: One Femur: 3.42 % Dose
  % Dose/1%-body weight: Blood: 0.443 % Dose/1%-body weight
  % Dose/1%-body weight: Femur: 10.9 % Dose/1%-body weight
  % Dose/1%-body weight: Kidney: 0.513 % Dose/1%-body weight
  % Dose/1%-body weight: Liver: 0.230 % Dose/1%-body weight
  % Dose/1%-body weight: Marrow: 0.195 % Dose/1%-body weight
  % Dose: Urine: 11.31 % Dose
0.1 mg/kg MDP
  % Dose in Whole Organ: Blood: 3.95 % Dose
  % Dose in Whole Organ: Kidneys: 0.66 % Dose
  % Dose in Whole Organ: Liver: 1.05 % Dose
  % Dose in Whole Organ: Marrow: 0.57 % Dose
  % Dose in Whole Organ: Muscle: 9.32 % Dose
  % Dose in Whole Organ: One Femur: 2.80 % Dose
  % Dose/1% Body weight: Blood: 0.56 % Dose/1% body weight
  % Dose/1% Body weight: Femur: 10.0 % Dose/1% body weight
  % Dose/1% Body weight: Kidneys: 1.00 % Dose/1% body weight
  % Dose/1% Body weight: Liver: 0.30 % Dose/1% body weight
  % Dose/1% Body weight: Marrow: 0.26 % Dose/1% body weight
  % Dose/1% Body weight: Muscle: 0.22 % Dose/1% body weight
  % Dose/1% Body weight: Pelvis: 12.2 % Dose/1% body weight
  % Dose/1% Body weight: Spine: 8.45 % Dose/1% body weight
  % Dose/1% Body weight: Tibia: 6.05 % Dose/1% body weight
  % Dose/1% body weight: Ave Bone: 9.17 % Dose/1% body weight
  % Dose: Urine: 15.4 % Dose
0.5 mg/kg AEDP
  % Dose in Whole Organ: Blood: 4.36 % Dose
  % Dose in Whole Organ: Kidneys: 0.384 % Dose
  % Dose in Whole Organ: Liver: 0.720 % Dose
  % Dose in Whole Organ: Marrow: 0.456 % Dose
  % Dose in Whole Organ: Muscle: 6.51 % Dose
  % Dose in Whole Organ: W. Femur: 2.75 % Dose
  % Dose in Whole Organ: W. Tibia: 2.42 % Dose
  % Dose/1% Body weight: Blood: 0.624 % Dose/1% Body weight
  % Dose/1% Body weight: Bone Ave: 10.78 % Dose/1% Body weight
  % Dose/1% Body weight: Femur: 10.43 % Dose/1% Body weight
  % Dose/1% Body weight: Kidneys: 0.924 % Dose/1% Body weight
  % Dose/1% Body weight: Liver: 0.270 % Dose/1% Body weight
  % Dose/1% Body weight: Marrow: 0.207 % Dose/1% Body weight
  % Dose/1% Body weight: Muscle: 0.151 % Dose/1% Body weight
  % Dose/1% Body weight: Pelvis: 11.42 % Dose/1% Body weight
  % Dose/1% Body weight: Spine: 9.87 % Dose/1% Body weight
  % Dose/1% Body weight: Tibia: 11.37 % Dose/1% Body weight
  % Dose: Urine: 10.47 % Dose
0.5 mg/kg EHDP
  % Dose in Whole Organ: Blood: 4.43 % Dose
  % Dose in Whole Organ: Kidneys: 0.48 % Dose
  % Dose in Whole Organ: Liver: 0.76 % Dose
  % Dose in Whole Organ: Marrow: 0.34 % Dose
  % Dose in Whole Organ: One Femur: 2.48 % Dose
  % Dose/1%-body weight: Blood: 0.633 % Dose/1%-body weight
  % Dose/1%-body weight: Femur: 9.213 % Dose/1%-body weight
  % Dose/1%-body weight: Kidney: 0.972 % Dose/1%-body weight
  % Dose/1%-body weight: Liver: 0.244 % Dose/1%-body weight
  % Dose/1%-body weight: Marrow: 0.152 % Dose/1%-body weight
  % Dose: Urine: 19.67 % Dose
0.5 mg/kg MDP
  % Dose in Whole Organ: Blood: 3.11 % Dose
  % Dose in Whole Organ: Kidneys: 0.45 % Dose
  % Dose in Whole Organ: Liver: 0.69 % Dose
  % Dose in Whole Organ: Marrow: 0.67 % Dose
  % Dose in Whole Organ: Muscle: 5.65 % Dose
  % Dose in Whole Organ: One Femur: 2.96 % Dose
  % Dose/1% Body weight: Blood: 0.45 % Dose/1% body weight
  % Dose/1% Body weight: Femur: 11.32 % Dose/1% body weight
  % Dose/1% Body weight: Kidneys: 0.69 % Dose/1% body weight
  % Dose/1% Body weight: Liver: 0.23 % Dose/1% body weight
  % Dose/1% Body weight: Marrow: 0.30 % Dose/1% body weight
  % Dose/1% Body weight: Muscle: 0.13 % Dose/1% body weight
  % Dose/1% Body weight: Pelvis: 8.68 % Dose/1% body weight
  % Dose/1% Body weight: Spine: 8.92 % Dose/1% body weight
  % Dose/1% Body weight: Tibia: 6.16 % Dose/1% body weight
  % Dose/1% body weight: Ave Bone: 8.77 % Dose/1% body weight
  % Dose: Urine: 15.16 % Dose

— US4032625A, “Bone-seeking technetium-99m complex” (priority 1975, dated 1977)
